{"source": "patent US9896470B2", "about": "“Enhancing the stability and purity and increasing the bioavailability of human milk oligosaccharides or precursors or blends thereof” (Glycom A/S, priority 2012, dated 2018)", "assay_type_in_all_cases": "physicochemical", "key": {"[1]": {"assay": "Stability test after two months (40° C., rel. humidity 75%)", "description": "75% of the methanol present in the feed solution was removed. […] Tg: 83.9° C."}, "[2]": {"assay": "Calorimetric (DSC) determination of glass transition temperature of the amorphous samples", "conditions": "for Tg (glass transition temperature): Perkin Elmer DSC-7, heating rate 10° C./min, spray-dried amorphous sample; for storage temperature limit suggested by Tg: spray-dried amorphous material", "description": "The calorimetric experiments to determine the glass transition temperature of the amorphous samples were carried out using Perkin Elmer DSC-7 at a heating rate of 10° C./min; the samples (5-7 mg) were placed in open aluminium crucibles."}, "[3]": {"assay": "Shelf life of spray-dried material on storage", "conditions": "below 40° C. storage temperature"}}}
{"smiles": "C[C@@H]1OC(O[C@H]2[C@H](O[C@H]3[C@H](O)[C@@H](O)C(O)O[C@@H]3CO)O[C@H](CO)[C@H](O)[C@@H]2O)[C@@H](O)[C@H](O)[C@@H]1O", "note": "(some centres unmarked) [spray-dried 2′-FL, 2′-O-fucosyllactose]", "values": [{"measurement": "stability test: changes in analytical data and powder X-ray diagram", "setting": "[1]", "value": "no changes in the analytical data and powder X-ray diagram"}, {"measurement": "Tg (glass transition temperature)", "setting": "[2]", "value": 83.9, "unit": "°C"}, {"measurement": "storage temperature limit suggested by Tg", "setting": "[2]", "value": "around 60 °C"}, {"measurement": "shelf life", "setting": "[3]", "value": "excellent shelf life"}]}
{"smiles": "CC(=O)N[C@H]1[C@H](O[C@H]2[C@@H](O)[C@@H](CO)O[C@@H](O[C@H]3[C@H](O)[C@@H](O)C(O)O[C@@H]3CO)[C@@H]2O)O[C@H](CO)[C@@H](O[C@@H]2O[C@H](CO)[C@H](O)[C@H](O)[C@H]2O)[C@@H]1O", "note": "(mixture of isomers) [spray-dried LNnT, Lacto-N-neotetraose]", "values": [{"measurement": "stability test: changes in analytical data and powder X-ray diagram", "setting": "[1]", "value": "no changes in the analytical data and powder X-ray diagram"}, {"measurement": "Tg (glass transition temperature)", "setting": "[2]", "value": 81.6, "unit": "°C"}, {"measurement": "storage temperature limit suggested by Tg", "setting": "[2]", "value": "around 60 °C"}, {"measurement": "shelf life", "setting": "[3]", "value": "excellent shelf life"}]}
{"smiles": "CC(=O)N[C@H]1[C@H]([C@H](O)[C@H](O)CO)O[C@@](OC[C@H]2O[C@@H](O[C@H]3[C@H](O)[C@@H](O)[C@H](O)O[C@@H]3CO)[C@H](O)[C@@H](O)[C@H]2O)(C(=O)O)C[C@@H]1O", "note": "[spray-dried 6′-SL, 6′-O-sialyllactose]", "values": [{"measurement": "Tg (glass transition temperature)", "setting": "[2]", "value": 84.0, "unit": "°C"}, {"measurement": "storage temperature limit suggested by Tg", "setting": "[2]", "value": "around 60 °C"}, {"measurement": "shelf life", "setting": "[3]", "value": "excellent shelf life"}]}
